From article PMC10418735, “Lipophilic Studies and In Silico ADME Profiling of Biologically Active 2-Aminothiazol-4(5H)-one Derivatives” (International Journal of Molecular Sciences, 2023)

Experiments:
[1] = Lipophilicity by RP-HPLC (methanol/water, RP-18 column); assay type: physicochemical; conditions: for −S (slope of the regression curve), RP–HPLC / log kw: methanol/water, RP-HPLC; for log kw: extrapolated to zero methanol concentration, 25 °C; for Φ0 (chromatographic lipophilicity parameter), RP–HPLC: Φ0 = −log kw/S
Experimental: The HPLC experiments were performed on the Shimadzu HPLC system (Kyoto, Japan) equipped with solvent delivery pump LC-20AD, UV–VIS detector model SPD-20A, degasser model DGU-20A5, a column oven model CTO-20A, and a column Superspher® 100 RP-18 (4 μm), Merck (Darmstadt, Germany). Methanol and water for HPLC from POCH (Gliwice, Poland) were used as solvents. Mobile phase methanol/water varied in the various ratios. Methanol concentration expressed as volume fraction v/v, varied in the range from 0.55 to 0.95 in constant steps of 0.05. Compounds 1–28 were dissolved in methanol (1 mg/mL). The mobile phase flow rate was 0.7 mL/min. The injection volume was 0.02 mL. All analyzes were performed at 25 °C. Experiments were performed in triplicate with similar results.
The retention coefficient k was calculated from the following relationship:(1) k=tr/tm−1, where tr [min]—retention time, and tm [min]—time for dead volume (measured by use of uracil).
To determine the linear relationship between the values of the log k parameter and the concentration of methanol in the mobile phase, the Soczewiński–Wachtmeister equation was used:(2) logk= log kw+SΦ, where log kw —value extrapolated to zero methanol concentration, Φ —methanol concentration in the mobile phase (volume fraction v/v), and S—the slope of the regression curve.
The parameter Φ0 was calculated from the equation:(3) Φ0=−log kw/S.

[2] = Lipophilicity by RP-TLC (methanol/water, HPTLC 60RP-18 plates); assay type: physicochemical; conditions: for −S (slope of the regression curve), RP–TLC / RM0: methanol/water, RP-TLC; for RM0: extrapolated to zero methanol concentration, 22 °C; for Φ0 (chromatographic lipophilicity parameter), RP–TLC: Φ0 = −RM0/S
Experimental: Specifically, 10 × 10 cm plates with silica gel HPTLC 60RP-18 WF254s (Merck, Darmstadt, Niemcy) were used as the stationary phase. Methanol and water for HPLC from POCH (Gliwice, Poland) were used as solvents. Methanol concentration expressed as volume fraction v/v, varied in the range from 0.5 to 0.7 in constant steps of 0.05. Test compounds were dissolved in methanol (2 mg/mL), and then samples (0.01 mL) of each were applied to plates, which were developed in a horizontal DS chamber (Chromdes, Lublin, Poland).
The developing distance was 8 cm. Developed plates were air-dried and observed under 254 nm ultraviolet lamp. All analyzes were performed at 22 °C. Experiments were performed in triplicate with similar results.
For all the compounds, the relative lipophilicity RM values for five methanol–water mobile phases were calculated by the use of the following formula:(4) RM=log[1−RF/RF].
The linear relationship between the RM values and the concentration of methanol in the mobile phase to determine the lipophilicity parameters RM0 is described by the following equation:(5) RM=RM0+SΦ, where Φ —methanol concentration in the mobile phase (volume fraction v/v), and S—the slope of the regression curve.
The quantity Φ0 was calculated from the following equation:(6) Φ0=−RM0/S.

SMILES | −S (slope of the regression curve), RP–HPLC [1] | log kw [1] | Φ0 (chromatographic lipophilicity parameter), RP–HPLC [1] | −S (slope of the regression curve), RP–TLC [2] | RM0 [2] | Φ0 (chromatographic lipophilicity parameter), RP–TLC [2]
CCC1SC(NC(C)C)=NC1=O (centres unmarked) [Compound 2] | 3.254 | 1.86 | 0.571 | 2.075 | 1.39 | 0.668
CC(C)NC1=NC(=O)C(c2ccc(Br)cc2)S1 (centres unmarked) [Compound 7] | 4.422 | 3.22 | 0.728 | 3.870 | 2.85 | 0.736
CC(C)C1SC(NC(C)(C)C)=NC1=O (centres unmarked) [Compound 13] | 3.585 | 2.39 | 0.667 | 2.095 | 1.46 | 0.699
CC(C)NC1=NC(=O)C(C)(C)S1 [Compound 5] | 3.400 | 1.94 | 0.571 | 1.903 | 1.20 | 0.629
CCCC1SC(NC23CC4CC(CC(C4)C2)C3)=NC1=O (centres unmarked) [Compound 21] | 4.859 | 4.08 | 0.840 | 2.564 | 2.33 | 0.909
O=C1N=C(NC23CC4CC(CC(C4)C2)C3)SC12CCCCC2 [Compound 26] | 5.192 | 4.49 | 0.865 | 3.520 | 3.09 | 0.879
CCCC1SC(NC(C)C)=NC1=O (centres unmarked) [Compound 3] | 3.494 | 2.28 | 0.652 | 2.422 | 1.63 | 0.673
CC(C)NC1=NC(=O)C(C(C)C)S1 (centres unmarked) [Compound 4] | 3.603 | 2.28 | 0.633 | 2.127 | 1.41 | 0.663
CCC1SC(NC(C)(C)C)=NC1=O (centres unmarked) [Compound 11] | 3.073 | 1.88 | 0.612 | 2.478 | 1.59 | 0.643
CC1SC(NC(C)(C)C)=NC1=O (centres unmarked) [Compound 10] | 3.122 | 1.74 | 0.557 | 2.393 | 1.57 | 0.658
CC(C)C1SC(NC23CC4CC(CC(C4)C2)C3)=NC1=O (centres unmarked) [Compound 22] | 4.744 | 3.94 | 0.830 | 3.175 | 2.67 | –
CC(C)NC1=NC(=O)C2(CCCCC2)S1 [Compound 8] | 4.170 | 2.97 | 0.712 | 2.877 | 2.04 | 0.709
O=C1N=C(NC23CC4CC(CC(C4)C2)C3)SC1c1ccc(Br)cc1 (centres unmarked) [Compound 25, 2-(adamantan-1-ylamino)-5-(4-bromophenyl)thiazol-4(5H)-one] | 5.578 | 5.63 | 1.009 | 3.277 | 3.56 | 1.086
O=C1CSC(NC23CC4CC(CC(C4)C2)C3)=N1 [Compound 28, 2-(Adamantylamino)thiazol-4(5H)-one] | 3.783 | 2.87 | 0.759 | 2.482 | 2.06 | 0.832
CC(C)(C)NC1=NC(=O)C2(CCCCC2)S1 [Compound 17, 2-(tert-butylamino)-1-thia-3-azaspiro[4.5]dec-2-en-4-one] | 3.904 | 2.86 | 0.732 | 2.477 | 1.89 | 0.762
CC1(C)SC(NC23CC4CC(CC(C4)C2)C3)=NC1=O [Compound 23] | 4.392 | 3.54 | 0.806 | 2.446 | 2.11 | 0.863
CC(C)(C)NC1=NC(=O)C(c2ccc(Br)cc2)S1 (centres unmarked) [Compound 16] | 4.537 | 3.38 | 0.745 | 4.131 | 3.20 | 0.774
CC(C)NC1=NC(=O)C2(CCC2)S1 [Compound 9] | 2.890 | 1.79 | 0.619 | 1.990 | 1.37 | 0.691
CC(C)(C)NC1=NC(=O)C(c2ccccc2)S1 (centres unmarked) [Compound 15] | 4.449 | 3.25 | 0.730 | 4.293 | 3.17 | 0.739
O=C1N=C(NC23CC4CC(CC(C4)C2)C3)SC12CCC2 [Compound 27] | 4.383 | 3.66 | 0.835 | 3.025 | 2.56 | 0.847
CC(C)NC1=NC(=O)C(c2ccccc2)S1 (centres unmarked) [Compound 6] | 4.3069 | 2.84 | 0.659 | 2.049 | 1.58 | 0.771
CC1SC(NC23CC4CC(CC(C4)C2)C3)=NC1=O (centres unmarked) [Compound 19] | 4.099 | 3.22 | 0.786 | 3.148 | 2.55 | 0.810
CC(C)(C)NC1=NC(=O)C(C)(C)S1 [Compound 14] | 3.320 | 2.02 | 0.608 | 1.826 | 1.19 | 0.652
CCCC1SC(NC(C)(C)C)=NC1=O (centres unmarked) [Compound 12] | 3.606 | 2.46 | 0.682 | 2.426 | 1.71 | 0.703
CC(C)(C)NC1=NC(=O)C2(CCC2)S1 [Compound 18] | 3.297 | 2.15 | 0.652 | 2.476 | 1.69 | 0.683
O=C1N=C(NC23CC4CC(CC(C4)C2)C3)SC1c1ccccc1 (centres unmarked) [Compound 24, 2-(adamantan-1-ylamino)-5-phenylthiazol-4(5H)-one] | 5.024 | 4.13 | 0.822 | 4.203 | 3.31 | 0.787
